Laboratory results taken from PMC7747997 (Plant Communications, 2019).
Values belong to the compound of their own block, whether it stands above or below them.

Tests used:
Experiment in all cases: X-ray crystal structure, […] Å
Format in all cases: binding
SrUGT76G1 [1] = target: T1, SrUGT76G1 (Stevia rebaudiana, UniProt Q6VAB4); settings: donor site; crystals set up with UDP-glucose
T1 sequence (Q6VAB4 1-458): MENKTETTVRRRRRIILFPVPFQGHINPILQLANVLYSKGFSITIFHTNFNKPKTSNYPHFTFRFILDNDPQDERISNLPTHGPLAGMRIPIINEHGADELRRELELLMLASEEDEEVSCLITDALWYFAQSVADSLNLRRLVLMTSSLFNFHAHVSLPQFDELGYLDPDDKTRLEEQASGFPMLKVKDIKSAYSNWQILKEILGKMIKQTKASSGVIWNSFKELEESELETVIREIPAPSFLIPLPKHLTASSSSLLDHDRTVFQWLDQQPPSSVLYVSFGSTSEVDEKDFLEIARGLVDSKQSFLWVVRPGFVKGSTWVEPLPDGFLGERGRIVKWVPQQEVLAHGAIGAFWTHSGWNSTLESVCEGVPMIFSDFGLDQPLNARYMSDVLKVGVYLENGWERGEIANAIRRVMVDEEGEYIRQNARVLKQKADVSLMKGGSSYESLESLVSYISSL

SrUGT76G1 [2] = target: T1, SrUGT76G1; settings: donor site; crystals set up with UDP-xylose and Sb
SrUGT76G1 [3] = target: T1, SrUGT76G1; settings: complex with UDP (crystals set up with UDP-xylose); acceptor pocket

Compound: O=c1ccn([C@@H]2O[C@H](COP(=O)(O)OP(=O)(O)O)[C@@H](O)[C@H]2O)c(=O)[nH]1 [UDP]
X-ray crystal structure, 2.6 Å (SrUGT76G1 [1]): we crystallized SrUGT76G1 complexed with UDP (UDP-SrUGT76G1)

X-ray crystal structure, 2.5 Å (SrUGT76G1 [2]): UDP-xylose (UDPX-SrUGT76G1)
Compound: O=c1ccn([C@@H]2O[C@H](COP(=O)(O)OP(=O)(O)O[C@H]3OC[C@@H](O)[C@H](O)[C@H]3O)[C@@H](O)[C@H]2O)c(=O)[nH]1 [UDP-xylose]

Compound: C=C1C[C@@]23CC[C@H]4[C@@](C)(CCC[C@@]4(C)C(=O)O)[C@@H]2CC[C@]1(O[C@@H]1O[C@H](CO)[C@@H](O)[C@H](O)[C@H]1O)C3 [steviolmonoside]
X-ray crystal structure, 2.4 Å (SrUGT76G1 [3]): UDP and steviolmonoside (UDP-Sm-SrUGT76G1)
